Results taken from patent US11667651B2, “Aminopyridine derivatives as phosphatidylinositol phosphate kinase inhibitors” (HiberCell, Inc., priority 2017, dated 2023).

Key:
Format in all cases: biochemical
PIP4K2B = target: T1, PIP4K2B (Homo sapiens, UniProt P78356); assay: Trans-FI P kinase assay PIP4K2B (Table 4); conditions: compounds listed under IC50 bins; read-out: Trans-FI P kinase assays: PIP4K2B IC50
T1 construct: made in house; host or cells: E. coli
T1 sequence (P78356 1-416): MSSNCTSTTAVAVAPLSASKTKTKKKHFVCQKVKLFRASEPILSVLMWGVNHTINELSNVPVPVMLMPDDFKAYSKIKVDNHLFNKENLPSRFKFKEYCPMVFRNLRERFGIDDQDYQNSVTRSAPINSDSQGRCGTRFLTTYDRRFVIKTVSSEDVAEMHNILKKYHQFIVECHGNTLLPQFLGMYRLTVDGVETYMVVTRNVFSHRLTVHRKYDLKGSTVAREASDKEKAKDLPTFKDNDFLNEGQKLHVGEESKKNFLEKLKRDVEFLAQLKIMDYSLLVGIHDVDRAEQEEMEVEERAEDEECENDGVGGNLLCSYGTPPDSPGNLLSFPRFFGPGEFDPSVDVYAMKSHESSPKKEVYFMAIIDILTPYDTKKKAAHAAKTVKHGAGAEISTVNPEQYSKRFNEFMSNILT
In short: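 Transcreener FI detection (Ex 584/Em 623) of GDP, converted via calibration curve, gives IC50 from residual activity versus log concentration (highest 4.8 μM). Reaction: 80 μM PI5P plus DOPE carrier, 100 μM GTP, 5 nM GST-tagged enzyme, pH 7.3 HEPES with MgCl2 and 5% DMSO, 2 h after 1 h enzyme-compound preincubation at 27° C.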

PIP4K2A [1] = target: T2, PIP4K2A (Homo sapiens, UniProt P48426); assay: Kinase Assay PIP4K2 A (Table 2); parameters: 4 nM PIP4K2A (full length protein, SignalChem); purchased SignalChem; conditions: compounds listed under IC50 bins
T2 sequence (P48426 1-406): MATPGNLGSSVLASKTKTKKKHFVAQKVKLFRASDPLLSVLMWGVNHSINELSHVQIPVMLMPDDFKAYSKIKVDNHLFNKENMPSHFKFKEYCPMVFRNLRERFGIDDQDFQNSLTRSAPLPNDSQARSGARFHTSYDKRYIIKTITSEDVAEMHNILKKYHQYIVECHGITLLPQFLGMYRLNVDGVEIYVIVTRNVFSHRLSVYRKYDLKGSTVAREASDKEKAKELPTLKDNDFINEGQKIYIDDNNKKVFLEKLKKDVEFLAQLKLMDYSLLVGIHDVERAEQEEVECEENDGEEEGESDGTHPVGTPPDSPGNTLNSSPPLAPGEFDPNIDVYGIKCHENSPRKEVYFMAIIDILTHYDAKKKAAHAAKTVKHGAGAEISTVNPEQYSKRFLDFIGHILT
In short: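 ADP-Glo luminescent read-out after 1 h room-temperature kinase reaction, started with 60 μM ATP solution following 15 min compound pre-incubation. Enzyme/substrate mix: 4 nM full-length PIP4K2A plus 100 μM PI(5)P diC8; buffer MOPS pH 7.2 with 25 mM MgCl2 and Tween 20. IC50 from 10-point, 3-fold titrations normalized to DMSO.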

PIP4K2A [2] = target: T2, PIP4K2A; assay: ADP-glo kinase assay PIP4K 2A (Table 3); parameters: made in house; host or cells: E. coli; conditions: compounds listed under IC50 bins
In short: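 ADP-Glo luminescence detected ADP after 1 h RT reaction started by ATP (60 μM solution) on full-length PIP4K2A (4 nM in mix) and PI(5)P diC8 (100 μM in mix), preceded by 15 min enzyme-compound preincubation in MOPS pH 7.2/25 mM MgCl2. Percent inhibition versus DMSO over 10 concentrations fitted for IC50.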

Row | IC50 (PIP4K2B) | IC50 (PIP4K2A [1]) | IC50 (PIP4K2A [2]) | Structure (SMILES)
1 | 10 to 100 nM | 10 to 100 nM | 10 to 100 nM | O=C1CCCN1c1ccc(-c2ccc(Nc3cnc4c(c3)N(S(=O)(=O)C3CC3)CCO4)nc2)cc1 [Example 154, 1-(4-(6-((1-(cyclopropylsulfonyl)-2,3-dihydro-1H-pyrido[2,3-b][1,4]oxazin-7-yl)amino)pyridin-3-yl)phenyl)pyrrolidin-2-one]
2 | 10 to 100 nM | 10 to 100 nM | 10 to 100 nM | O=C1CCCN1c1ccc(-c2cnc(Nc3cnc4c(c3)N3C(=O)CC[C@H]3CO4)cn2)cc1 [Example 162, (S)-2-((5-(4-(2-oxopyrrolidin-1-yl)phenyl)pyrazin-2-yl)amino)-6,6a,7,8-tetrahydro-9H-pyrido[2,3-b]pyrrolo[1,2-d][1,4]oxazin-9-one]
3 | 10 to 100 nM | 1 to 10 nM | 1 to 10 nM | CC(C)(C)C(=O)N1CCOc2ncc(Nc3ccc(-c4ccc(N5CCCC5=O)cc4)cn3)cc21 [Example 155, 1-(4-(6-((1-pivaloyl-2,3-dihydro-1H-pyrido[2,3-b][1,4]oxazin-7-yl)amino)pyridin-3-yl)phenyl)pyrrolidin-2-one]
4 | 10 to 100 nM | 1 to 10 nM | 1 to 10 nM | CN(C)C/C=C/C(=O)Nc1cccc(CCC(=O)Nc2ccc(CN3CCN(c4cncc(Nc5ccc(-c6ccc(C(=O)N(C)C)cc6)cn5)c4)C3=O)cc2)c1 [Example 231, (E)-4-(6-((5-(3-(4-(3-(3-(4-(dimethylamino)-but-2-enamido)phenyl)propanamido)benzyl)-2-oxoimidazolidin-1-yl)pyridin-3-yl)amino)pyridin-3-yl)-N,N-dimethylbenzamide]
5 | 10 to 100 nM | 1 to 10 nM | 10 to 100 nM | O=C1CCCN1c1ccc(-c2ccc(Nc3cnc4c(c3)N3C(=O)C(O)C[C@H]3CO4)nc2)cc1 (stereo partly drawn) [Example 268, (6aS)-8-hydroxy-2-((5-(4-(2-oxopyrrolidin-1-yl)phenyl)pyridin-2-yl)amino)-6,6a,7,8-tetrahydro-9H-pyrido[2,3-b]pyrrolo[1,2-d][1,4]oxazin-9-one]
6 | 10 to 100 nM | 100 to 1000 nM | 100 to 1000 nM | O=C1C[C@@H](O)CN1c1ccc(-c2ccc(Nc3cnc4c(c3)N3C(=O)CC[C@H]3CO4)nc2)cc1 [Example 236, (S)-2-((5-(4-((R)-4-hydroxy-2-oxopyrrolidin-1-yl)phenyl)pyridin-2-yl)amino)-6,6a,7,8-tetrahydro-9H-pyrido[2,3-b]pyrrolo[1,2-d][1,4]oxazin-9-one]
7 | 10 to 100 nM | 1 to 10 nM | 1 to 10 nM | O=C1CCCN1c1ccc(-c2ccc(Nc3cncc(N4CCN(Cc5cscn5)C4=O)c3)nc2)cc1 [Example 163, 1-(5-((5-(4-(2-oxopyrrolidin-1-yl)phenyl)pyridin-2-yl)amino)pyridin-3-yl)-3-(thiazol-4-ylmethyl)imidazolidin-2-one]

Further lines, the compound ahead of its results:

Row | Structure (SMILES) | IC50 (PIP4K2B) | IC50 (PIP4K2A [1]) | IC50 (PIP4K2A [2])
8 | O=C1CCCN1c1ccc(-c2ccc(Nc3cnc4c(c3)N3C(=O)CC[C@@H]3CO4)nc2)cc1 [Example 85, (R)-2-((5-(4-(2-oxopyrrolidin-1-yl)phenyl)pyridin-2-yl)amino)-6,6a,7,8-tetrahydro-9H-pyrido[2,3-b]pyrrolo[1,2-d][1,4]oxazin-9-one] | 10 to 100 nM | 1 to 10 nM | 10 to 100 nM
9 | CN(C)C(=O)c1ccc(-c2ccc(Nc3cncc(NC(=O)CCc4ccc(N)cc4)c3)nc2)cc1 [Example 118, 4-(6-((5-(3-(4-aminophenyl)propanamido)pyridin-3-yl)amino)pyridin-3-yl)-N,N-dimethylbenzamide] | 10 to 100 nM | 10 to 100 nM | 10 to 100 nM
10 | CN(C)C(=O)c1ccc(-c2ccc(Nc3cncc(NC(=O)c4cccc(NC(=O)OC(C)(C)C)c4)c3)nc2)cc1 [Example 98, tert-butyl (3-((5-((5-(4-(dimethylcarbamoyl)phenyl)pyridin-2-yl)amino)pyridin-3-yl)carbamoyl)phenyl)carbamate] | 10 to 100 nM | 10 to 100 nM | 100 to 1000 nM
11 | CN(C)C(=O)c1ccc(-c2ccc(Nc3ccc(N4CCOCC4)nc3)nc2)cc1 [Example 60, N,N-dimethyl-4-(6-((6-morpholinopyridin-3-yl)amino)pyridin-3-yl)benzamide] | > 1000 nM | > 1000 nM | > 1000 nM
12 | COC(=O)Nc1cncc(Nc2ccc(-c3ccc(C(=O)N(C)C)cc3)cn2)c1 [Example 120, methyl(5-((5-(4-(dimethylcarbamoyl)phenyl)pyridin-2-yl)amino)pyridin-3-yl)carbamate] | 10 to 100 nM | 10 to 100 nM | 100 to 1000 nM
13 | CN(C)C(=O)c1ccc(-c2ccc(Nc3cncc(OC(F)F)c3)nc2)cc1 [Example 49, 4-(6-((5-(difluoromethoxy)pyridin-3-yl)amino)pyridin-3-yl)-N,N-dimethylbenzamide] | > 1000 nM | 100 to 1000 nM | 100 to 1000 nM
14 | CN(C)C(=O)c1ccc(-c2ccc(Nc3cncc(NC(=O)CCc4cccc(NC(=O)CCCCCN)c4)c3)nc2)cc1 [Example 111, 4-(6-((5-(3-(3-(6-aminohexanamido)phenyl)propanamido)pyridin-3-yl)amino)pyridin-3-yl)-N,N-dimethylbenzamide] | 10 to 100 nM | 1 to 10 nM | 1 to 10 nM
15 | CN(C)C(=O)c1ccc(-c2ccc(Nc3cnc4c(c3)N(C(=O)c3ccccc3)CCO4)nc2)cc1 [Example 94, 4-(6-((1-benzoyl-2,3-dihydro-1H-pyrido[2,3-b][1,4]oxazin-7-yl)amino)pyridin-3-yl)-N,N-dimethylbenzamide] | 10 to 100 nM | 1 to 10 nM | 10 to 100 nM
16 | CN(C)C(=O)c1ccc(-c2ccc(Nc3cnc4c(c3)N(C(=O)c3ccccn3)CCO4)nc2)cc1 [Example 95, N,N-dimethyl-4-(6-((1-picolinoyl-2,3-dihydro-1H-pyrido[2,3-b][1,4]oxazin-7-yl)amino)pyridin-3-yl)benzamide] | 10 to 100 nM | 10 to 100 nM | 10 to 100 nM
17 | CN(C)C(=O)c1ccc(-c2ccc(Nc3ccc(CNC(=O)c4cccc(NC(=O)OC(C)(C)C)c4)nc3)nc2)cc1 [Example 104, tert-butyl (3-(((5-((5-(4-(dimethylcarbamoyl)phenyl)pyridin-2-yl)amino)pyridin-2-yl)methyl)carbamoyl)phenyl)carbamate] | > 1000 nM | 100 to 1000 nM | > 1000 nM
18 | CN(C)C(=O)c1ccc(-c2ccc(Nc3cnc4c(c3)N(C(=O)CO)CCO4)nc2)cc1 [Example 89, 4-(6-((1-(2-hydroxyacetyl)-2,3-dihydro-1H-pyrido[2,3-b][1,4]oxazin-7-yl)amino)pyridin-3-yl)-N,N-dimethylbenzamide] | 10 to 100 nM | 1 to 10 nM | 10 to 100 nM
19 | CN(C)C(=O)c1ccc(-c2ccc(Nc3cncc(NC(=O)c4cccc(F)c4)c3)nc2)cc1 [Example 140, 4-(6-((5-(3-fluorobenzamido)pyridin-3-yl)amino)pyridin-3-yl)-N,N-dimethylbenzamide] | 10 to 100 nM | 10 to 100 nM | 10 to 100 nM
20 | CN(C)C/C=C/C(=O)Nc1ccc(CCC(=O)Nc2cncc(Nc3ccc(-c4ccc(C(=O)N(C)C)cc4)cn3)c2)cc1 [Example 119, (E)-4-(6-((5-(3-(4-(4-(dimethylamino)but-2-enamido)phenyl)propanamido)pyridin-3-yl)amino)pyridin-3-yl)-N,N-dimethylbenzamide] | 10 to 100 nM | 1 to 10 nM | 10 to 100 nM
21 | CN(C)C(=O)c1ccc(-c2ccc(Nc3cncc(NC(=O)C4CCOCC4)c3)nc2)cc1 [Example 126, N-(5-((5-(4-(dimethylcarbamoyl)phenyl)pyridin-2-yl)amino)pyridin-3-yl)tetrahydro-2H-pyran-4-carboxamide] | 10 to 100 nM | 10 to 100 nM | 100 to 1000 nM
